Source: patent US12344610B2, “APOL1 inhibitors and methods of use” (Maze Therapeutics, Inc., priority 2022, dated 2025)

Key:
Assay type in all cases: cell-based
[1] = system: Trypanosoma brucei Lister 427 VSG221 with APOL1 G0 recombinant protein; assay: APOL1 G0 trypanosome cell rescue assay (Example B5); conditions: Trypanosoma brucei, 20 h, read-out: APOL1 G0 Trypanosome Rescue EC50, Trypanosoma brucei Lister 427 VSG221 with APOL1 G0 recombinant protein, 20 hours, CellTiter-Glo; geometric mean of at least 2 assay runs; † = single assay run
Procedure, shortened: (§1)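 Recombinant APOL1 protein, dispensed from a 2 μg/mL stock, and 250 T. brucei per well were co-incubated with test compound (0.4% DMSO) for 20 h. Viability: CellTiter-Glo luminescence.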

[2] = system: Trypanosoma brucei Lister 427 VSG221 with APOL1 G1 recombinant protein; assay: APOL1 G1 trypanosome cell rescue assay (Example B5); conditions: Trypanosoma brucei, 20 h, read-out: APOL1 G1 Trypanosome Rescue EC50, Trypanosoma brucei Lister 427 VSG221 with APOL1 G1 recombinant protein, 20 hours, CellTiter-Glo; geometric mean of at least 2 assay runs; † = single assay run
Procedure, shortened: as §1

[3] = system: Trypanosoma brucei Lister 427 VSG221 with APOL1 G2 recombinant protein; assay: APOL1 G2 trypanosome cell rescue assay (Example B5); conditions: Trypanosoma brucei, 20 h, read-out: APOL1 G2 Trypanosome Rescue EC50, Trypanosoma brucei Lister 427 VSG221 with APOL1 G2 recombinant protein, 20 hours, CellTiter-Glo; geometric mean of at least 2 assay runs; † = single assay run
Procedure, shortened: as §1

In the case of `C[C@]1(O)C[C@@H](N2C(=O)Cc3cc(OCCN4CCC5(CC4)C(=O)Nc4ccc(C(F)F)cc45)cnc32)C1` [Compound 346, 5-(difluoromethyl)-1′-[2-({2-oxo-1-[(cis)-3-hydroxy-3-methylcyclobutyl]-1H,2H,3H-pyrrolo[2,3-b]pyridin-5-yl]oxy)ethyl]-1,2-dihydrospiro[indole-3,4′-piperidin]-2-one], the EC50 [1] is reported as 83.6 nM, the EC50 [2] is reported as 116 nM and the EC50 [3] is reported as 37.7 nM.
With `C[C@]1(O)C[C@@H](n2ccc3cc(OCCN4CCC5(CC4)C(=O)Nc4ccc(Cl)cc45)cnc32)C1` [Compound 349, 5-chloro-1′-[2-({1-[(cis)-3-hydroxy-3-methylcyclobutyl]-1H-pyrrolo[2,3-b]pyridin-5-yl}oxy)ethyl]-1,2-dihydrospiro[indole-3,4′-piperidin]-2-one] the EC50 [1] was 64.6 nM, the EC50 [2] was 89.8 nM and the EC50 [3] was 33.1 nM.
`C[C@]1(O)C[C@@H](n2cnc3cc(OCCN4CCC5(CC4)C(=O)Nc4ccc(Cl)cc45)cc(C(F)(F)F)c32)C1` [Compound 352, 5-chloro-1′-[2-({1-[(cis)-3-hydroxy-3-methylcyclobutyl]-7-(trifluoromethyl)-1H-1,3-benzodiazol-5-yl}oxy)ethyl]-1,2-dihydrospiro[indole-3,4′-piperidin]-2-one] was tested, and the EC50 [1] was 18.7 nM, the EC50 [2] was 18.8 nM and the EC50 [3] was 8.22 nM.
In the case of `C[C@]1(O)C[C@@H](N2C(=O)NCc3cc(OCCN4CCC5(CC4)C(=O)Nc4ccc(Cl)cc45)cnc32)C1` [Compound 356, 5-chloro-1′-[2-({2-oxo-1-[(cis)-3-hydroxy-3-methylcyclobutyl]-1H,2H,3H,4H-pyrido[2,3-d]pyrimidin-6-yl}oxy)ethyl]-1,2-dihydrospiro[indole-3,4′-piperidin]-2-one], the EC50 [1] is reported as 101 nM, the EC50 [2] is reported as 113 nM and the EC50 [3] is reported as 37.4 nM.
`CC(C)(O)c1ncc(OCCN2CCC3(CC2)C(=O)Nc2ccc(Cl)cc23)cc1C(F)(F)F` [Compound 371, 5-chloro-1′-(2-{[6-(2-hydroxypropan-2-yl)-5-(trifluoromethyl)pyridin-3-yl]oxy}ethyl)-1,2-dihydrospiro[indole-3,4′-piperidin]-2-one] showed an EC50 [1] of 18.8 nM, an EC50 [2] of 21.9 nM and an EC50 [3] of 9.16 nM.
Compound `CCC1(O)CN(c2ncc(OCCN3CCC4(CC3)C(=O)Nc3ccc(Cl)cc34)cn2)C1` [Compound 397, 5-chloro-1′-(2-{[2-(3-ethyl-3-hydroxyazetidin-1-yl)pyrinlidin-5-yl]oxy}ethyl)-1,2-dihydrospiro[indole-3,4′-piperidin]-2-one] has an EC50 [1] of 226 nM, an EC50 [2] of 269 nM and an EC50 [3] of 85.2 nM.
`C[C@]1(O)C[C@@H](n2ccc3cc(OCCN4CCC5(CC4)C(=O)Nc4ccc(C#N)cc45)cnc32)C1` [Compound 410, 2-oxo-1′-[2-({1-[(cis)-3-hydroxy-3-methylcyclobutyl]-1H-pyrrolo[2,3-b]pyridin-5-yl}oxy)ethyl]-1,2-dihydrospiro[indole-3,4′-piperidine]-5-carbonitrile] was tested, and the EC50 [1] was 206 nM, the EC50 [2] was 269 nM and the EC50 [3] was 92.4 nM.
In the case of `[2H]C([2H])(Oc1cnc2c(c1)CCC(=O)N2[C@H]1C[C@@](C)(O)C1)C([2H])([2H])N1CCC2(CC1)C(=O)Nc1ccc(Cl)cc12` [Compound 426, 5-chloro-1′-[2-({7-oxo-8-[(cis)-3-hydroxy-3-methylcyclobutyl]-5,6,7,8-tetrahydro-1,8-naphthyridin-3-yl}oxy)(1,1,2,2-^2H4)ethyl]-1,2-dihydrospiro[indole-3,4′-piperidin]-2-one], the EC50 [1] is reported as 71 nM, the EC50 [2] is reported as 88.8 nM and the EC50 [3] is reported as 36.7 nM.
`C[C@]1(O)C[C@@H](n2cc3cc(OCCN4CCC5(CC4)C(=O)Nc4ccc(Cl)cc45)cc(C(F)(F)F)c3n2)C1` [Compound 427, 5-chloro-1′-[2-({2-[(cis)-3-hydroxy-3-methylcyclobutyl]-7-(trifluoromethyl)-2H-indazol-5-yl}oxy)ethyl]-1,2-dihydrospiro[indole-3,4′-piperidin]-2-one] gave an EC50 [1] of 15.6 nM, an EC50 [2] of 18.1 nM and an EC50 [3] of 6.62 nM.
`C[C@]1(O)C[C@@H](n2cc3cc(OCCN4CCC5(CC4)C(=O)Nc4ccc(C#N)cc45)cc(C(F)(F)F)c3n2)C1` [Compound 428, 2-oxo-1′-[2-({2-[(cis)-3-hydroxy-3-methylcyclobutyl]-7-(trifluoromethyl)-2H-indazol-5-yl}oxy)ethyl]-1,2-dihydrospiro[indole-3,4′-piperidine]-5-carbonitrile] gave an EC50 [1] of 63.3 nM, an EC50 [2] of 71.9 nM and an EC50 [3] of 32.3 nM.
With `C[C@]1(O)C[C@@H](n2nnc3cc(OCCN4CCC5(CC4)C(=O)Nc4ccc(C#N)cc45)cc(C(F)(F)F)c32)C1` [Compound 435, 2-oxo-1′-[2-({1-[(cis)-3-hydroxy-3-methylcyclobutyl]-7-(trifluoromethyl)-1H-1,2,3-benzotriazol-5-yl}oxy)ethyl]-1,2-dihydrospiro[indole-3,4′-piperidine]-5-carbonitrile] the EC50 [1] was 27.1 nM, the EC50 [2] was 27.2 nM and the EC50 [3] was 14.5 nM.
In the case of `C[C@]1(O)C[C@@H](n2cnc3cc(OCCN4CCC5(CC4)C(=O)Nc4ccc(Cl)cc45)cc(C#N)c32)C1` [Compound 439, 5-(2-{5-chloro-2-oxo-1,2-dihydrospiro[indole-3,4′-piperidin]-1′-yl}ethoxy)-1-[(cis)-3-hydroxy-3-methylcyclobutyl]-1H-1,3-benzodiazole-7-carbonitrile], the EC50 [1] is reported as 50.5 nM, the EC50 [2] is reported as 51 nM and the EC50 [3] is reported as 20.2 nM.
Compound `C[C@]1(O)C[C@@H](n2nnc3cc(OCCN4CCC5(CC4)C(=O)Nc4ccc(Cl)cc45)cnc32)C1` [Compound 440, 5-chloro-1′-[2-({3-[(cis)-3-hydroxy-3-methylcyclobutyl]-3H-[1,2,3]triazolo[4,5-b]pyridin-6-yl}oxy)ethyl]-1,2-dihydrospiro[indole-3,4′-piperidin]-2-one] has an EC50 [1] of 160 nM, an EC50 [2] of 205 nM and an EC50 [3] of 70.5 nM.
`CC1(O)CC2(CN(c3ncc(OCCN4CCC5(CC4)C(=O)Nc4ccc(Cl)cc45)cn3)C2)C1` [Compound 459, 5-chloro-1′-{2-[(2-{6-hydroxy-6-methyl-2-azaspiro[3.3]heptan-2-yl}pyrimidin-5-yl)oxy]ethyl}-1,2-dihydrospiro[indole-3,4′-piperidin]-2-one] gave an EC50 [1] of 101 nM, an EC50 [2] of 133 nM and an EC50 [3] of 49.8 nM.
For `C[C@]1(O)C[C@@H](N2C(=O)C3(CC3)c3cc(OCCN4CCC5(CC4)C(=O)Nc4ccc(Cl)cc45)cnc32)C1` [Compound 460, 5-chloro-1′-(2-{2′-oxo-1′-[(cis)-3-hydroxy-3-methylcyclobutyl]-1′,2′-dihydrospiro[cyclopropane-1,3′-pyrrolo[2,3-b]pyridin]-5′-yloxy}ethyl)-1,2-dihydrospiro[indole-3,4′-piperidin]-2-one], the EC50 [1] was 104 nM, the EC50 [2] was 118 nM and the EC50 [3] was 53.7 nM.
Work on `[2H]C([2H])([2H])[C@]1(O)C[C@@H](N2C(=O)CCc3cc(OCCN4CCC5(CC4)C(=O)Nc4ccc(Cl)cc45)cnc32)C1` [Compound 461, 5-chloro-1′-[2-({7-oxo-8-[(cis)-3-hydroxy-3-(^2H3)methylcyclobutyl]-5,6,7,8-tetrahydro-1,8-naphthyridin-3-yl}oxy)ethyl]-1,2-dihydrospiro[indole-3,4′-piperidin]-2-one] yielded an EC50 [1] of 69.2 nM, an EC50 [2] of 75.5 nM and an EC50 [3] of 28.8 nM.
Compound `C[C@]1(O)C[C@@H](n2c(=O)[nH]c3cc(OCCN4CCC5(CC4)C(=O)Nc4ccc(Cl)cc45)cc(C(F)(F)F)c32)C1` [Compound 468, 5-chloro-1′-[2-({2-oxo-1-[(cis)-3-hydroxy-3-methylcyclobutyl]-7-(trifluoromethyl)-2,3-dihydro-1H-1,3-benzodiazol-5-yl}oxy)ethyl]-1,2-dihydrospiro[indole-3,4′-piperidin]-2-one] has an EC50 [1] of 3.72 nM, an EC50 [2] of 5.59 nM and an EC50 [3] of 2.4 nM.
For `C[C@]1(O)C[C@@H](n2c(=O)[nH]c3cc(OCCN4CCC5(CC4)C(=O)Nc4ccc(C#N)cc45)cc(C(F)(F)F)c32)C1` [Compound 470, 2-oxo-1′-[2-({2-oxo-1-[(cis)-3-hydroxy-3-methylcyclobutyl]-7-(trifluoromethyl)-2,3-dihydro-1H-1,3-benzodiazol-5-yl}oxy)ethyl]-1,2-dihydrospiro[indole-3,4′-piperidine]-5-carbonitrile], the EC50 [1] was 8.82 nM, the EC50 [2] was 12.4 nM and the EC50 [3] was 4.41 nM.
